Assay results published in patent US9951039B2, “Pyrimidines for treatment of bacterial infections” (The Hong Kong Polytechnic University, priority 2016, dated 2018).
Converted amounts (≈) assume the structure as drawn.

Legend:
[1] = test system: S. aureus ATCC BAA-41 (methicillin resistant); assay: MIC against clinically isolated strain 4; type: cell-based; details: Staphylococcus aureus, ATCCBAA41
Method: (§1) Procedure of Antimicrobial susceptibility test: The MIC value of compounds was measured in the antimicrobial susceptibility test using the broth microdilution procedure in accordance with the CLSI guidelines.^21 Cation-adjusted Mueller Hinton broth (CA-MHB) was used for all the S. aureus strains in the assay. Cells in exponential phase of growth were diluted to approximately 5×10^5 cfu/mL. Stock solutions of each compound were freshly dissolved in dimethyl sulfoxide (DMSO). Then, serial dilutions of each compound in CA-MHB medium were added into 96-well microplate. The final percentage of DMSO in the assay was 1%. Control experiments were performed with 1% DMSO instead of the compound solution. After being incubated at 37° C. for 18 h, OD600 value of cells was measured on a microplate reader and the percentage of bacterial cell inhibition with respect to controls was calculated. The MIC value was defined as the lowest compound concentration at which the growth of bacteria was inhibited by ≥90%. Three independent assays were performed for each compound.
(§2) Results: Three compounds, namely 14av_amine16, 14dv_amine16 and 14dv_amine06, were selected to be tested against nine in-house clinically isolated bacterial strains including S. aureus ATCC29247, which is an ampicillin resistant strain, S. aureus ATCC BAA-41, ATCC BAA-1717, ATCC BAA-1720, ATCC 43300 which are methicillin resistant strains and four USA300 strains, (#417, #757, #1799 and #2690), which are the predominant strain type of community-associated MRSA strains in the United States.

[2] = test system: S. aureus ATCC BAA-1720 (methicillin resistant); assay: MIC against clinically isolated strain 3; type: cell-based; details: Staphylococcus aureus, ATCCBAA1720
Method: as §1, §2

[3] = test system: USA300 #417 (community-associated MRSA); assay: MIC against clinically isolated strain 6; type: cell-based, S. aureus; details: Staphylococcus aureus
Method: as §1, §2

[4] = test system: S. aureus ATCC 43300 (methicillin resistant); assay: MIC against clinically isolated strain 5; type: cell-based; details: Staphylococcus aureus, ATCC43300
Method: as §1, §2

[5] = test system: S. aureus ATCC BAA-1717 (methicillin resistant); assay: MIC against clinically isolated strain 2; type: cell-based; details: Staphylococcus aureus, ATCCBAA1717
Method: as §1, §2

[6] = test system: USA300 #1799 (community-associated MRSA); assay: MIC against clinically isolated strain 8; type: cell-based, S. aureus; details: Staphylococcus aureus
Method: as §1, §2

[7] = test system: USA300 #2690 (community-associated MRSA); assay: MIC against clinically isolated strain 9; type: cell-based, S. aureus; details: Staphylococcus aureus
Method: as §1, §2

[8] = test system: clinically isolated S. aureus strains; assay: MIC against the nine clinically isolated S. aureus strains; type: cell-based; details: Staphylococcus aureus; most of the MRSA strains
Method: as §1, with “compound. […]” for “compound.”

[9] = test system: USA300 #757 (community-associated MRSA); assay: MIC against clinically isolated strain 7; type: cell-based, S. aureus; details: Staphylococcus aureus
Method: as §1, §2

MIC [1]: > 30 µM | MIC [2]: > 30 µM | MIC [3]: > 30 µM | MIC [4]: > 30 µM | MIC [5]: > 30 µM | MIC [6]: 30 µM (≈ 11.4 µg/mL) | MIC [7]: 15 µM (≈ 5.71 µg/mL) | MIC [8]: > 30 µM | MIC [9]: 30 µM (≈ 11.4 µg/mL)
Compound: COc1cccc(OC)c1C(=O)N[C@@H]1C(=O)N2[C@@H]1SC(C)(C)[C@@H]2C(=O)O [Methicillin, reference compound]
